Test results as given in PMC12005801, “Non‐Membrane Active Peptide Resensitizes MRSA to β‐Lactam Antibiotics and Inhibits S. aureus Virulence” (Advanced Science, 2025).
Read-outs that look alike come from different tables or passages of the source.

What was measured:
MRSA T144 [1] = test: MIC assay, agent alone; assay type: cell-based, Staphylococcus aureus; parameters: MIC^a, MIC in the presence of AMPs only: unit not given beside the values; conditions: for MIC: Staphylococcus aureus
MRSA T144 [2] = test: MIC assay of β-lactams in the presence of AMPs (potentiation); assay type: cell-based, Staphylococcus aureus; conditions: for Potentiation (fold)^c, MIC^a / MIC^b: antibiotic with 1/4 MIC GN1
Procedure: A) Potentiation of different AMPs to piperacillin (PIP) against MRSA T144. 1/4 MIC AMPs were mixed with bacteria (10^6 CFU mL^−1) in MH medium and cultured with diluted PIP in 96‐well plates overnight. […] All experiments were conducted with three biological replicates and data were presented as mean ± SD.

S. aureus 29213 = test: MIC of β-lactams with/without GN1; assay type: cell-based, Staphylococcus aureus; conditions: for MIC: Staphylococcus aureus, antibiotic alone; for MIC (+1/2 MIC GN1): antibiotic + 1/2 MIC GN1
Procedure: MICs determination of drugs was based on the standard microdilution method as described previously.^[ [46] ^] Briefly, compounds were twofold serial dilution with MHB. Next, AMPs were added to the log‐phase bacteria suspensions (1 × 10^6 CFUs mL^−1) and then mixed with compounds in a 96‐well microliter plate (Corning, NY, USA).

MRSA T144 [3] = test: Time-killing assay; assay type: cell-based, Staphylococcus aureus; conditions: identical concentrations alone: GN1 8 µg mL^−1, PIP 16 µg mL^−1, 12 h
Procedure: Briefly, overnight bacteria culture was diluted 1:1000 into LB and incubated for 4 h at 37 °C with 200 rpm. […] At the time points 0, 2, 4, 6, 8, 10, and 12 h, 100 µL bacteria culture was removed and resuspended in PBS and the serial dilutions were spotted on LB agar. After incubation overnight at 37 °C, the colony counts were calculated.

MRSA T144 [4] = conditions: addition of glutamate
Procedure: G) Fold changes in MIC values of various β‐lactams in the presence of glutamate against MRSA T144. […] All experiments were conducted with three biological replicates and data were presented as mean ± SD. Statistical significance was analyzed by ordinary one‐way or two‐way ANOVA (*P < 0.05, **P < 0.01, ***P < 0.001, ****P < 0.0001). ns, not significant.

[5] = MRSA, read-out: MIC^a, MIC in the presence of antibiotics only
[6] = MRSA T144, read-out: MIC^a, MIC in the presence of antibiotics only

| Molecule | MIC (MRSA T144 [1]; [5]) | MIC^b, MIC in combination of antibiotics and 1/4 MIC GN1 (MRSA T144 [2]) | Potentiation (fold)^c, MIC^a / MIC^b (MRSA T144 [2]) | MIC (MRSA T144 [1]; [6]) | MIC (S. aureus 29213) | MIC (+1/2 MIC GN1) (S. aureus 29213) | further results |
| --- | --- | --- | --- | --- | --- | --- | --- |
| CC1(C)S[C@@H]2[C@H](NC(=O)C(C(=O)O)c3ccccc3)C(=O)N2[C@H]1C(=O)O (stereo partly drawn) [Carbenicillin] | 32 µg/mL | 1 µg/mL | 32 fold |  |  |  |  |
| CO/N=C(\C(=O)N[C@@H]1C(=O)N2C(C(=O)O)=C(CSc3nc(=O)c(=O)[nH]n3C)CS[C@H]12)c1csc(N)n1 [Ceftriaxone] | 32 µg/mL | 4 µg/mL | 8 fold |  |  |  |  |
| Ac-WKVKWKVKWKVK-NH2 [WK-12] |  |  |  |  |  |  | MIC^a, MIC in the presence of AMPs only (MRSA T144 [1]; MRSA T144, microdilution in MHB, 1 × 10^6 CFUs mL^−1, 37 °C, 16–18 h, no unit in table (text gives µg mL^−1)): 32; Potentiation (fold)^c, MIC^c / MIC^b (MRSA T144 [2]; MIC of piperacillin only / MIC of piperacillin with 1/4 MIC AMP): 4 fold; MIC^b, MIC of piperacillin in the presence of 1/4 MIC AMPs (MRSA T144 [2]; label = the AMP added at 1/4 MIC, no unit in table (text gives µg mL^−1)): 128 |
| CC1(C)S[C@@H]2[C@H](NC(=O)[C@H](C(=O)O)c3ccsc3)C(=O)N2[C@H]1C(=O)O [Ticarcillin] |  | 1 µg/mL | 16 fold | 16 µg/mL | 2 µg/mL | 2 µg/mL |  |
| Cc1onc(-c2ccccc2)c1C(=O)N[C@@H]1C(=O)N2[C@@H]1SC(C)(C)[C@@H]2C(=O)O [Oxacillin] |  | 0.03125 µg/mL | 32 fold | 1 µg/mL |  |  |  |
| CC1(C)S[C@@H]2[C@H](NC(=O)[C@H](N)c3ccccc3)C(=O)N2[C@H]1C(=O)O [Ampicillin] |  | 8 µg/mL | 64 fold | 512 µg/mL | 16 µg/mL | 8 µg/mL |  |
| CCN1CCN(C(=O)N[C@@H](C(=O)N[C@@H]2C(=O)N3[C@@H]2SC(C)(C)[C@@H]3C(=O)O)c2ccccc2)C(=O)C1=O [Piperacillin] |  | 8 µg/mL |  | > 512 µg/mL | 2 µg/mL | 0.5 µg/mL | MIC (MRSA T144 [1]; MRSA T144, read-out: MIC of PIP alone): 512 µg/mL; Time-kill kinetics, single agent (MRSA T144 [3]): failed to prevent bacterial proliferation |
| CO/N=C(\C(=O)N[C@@H]1C(=O)N2C(C(=O)[O-])=C(C[N+]3(C)CCCC3)CS[C@H]12)c1csc(N)n1 [Cefepime] | 8 µg/mL | 2 µg/mL | 4 fold |  | 4 µg/mL | 2 µg/mL |  |
| CO/N=C(\C(=O)N[C@@H]1C(=O)N2C(C(=O)O)=C(COC(N)=O)CS[C@H]12)c1ccco1 [Cefuroxime] | 8 µg/mL | 1 µg/mL | 8 fold |  |  |  |  |
| N[C@@H](CCC(=O)O)C(=O)O [glutamate] |  |  |  |  |  |  | Reduction of MIC values of three β‐lactam antibiotics (MRSA T144 [4]): 2-16 fold |
| C[C@@H](O)[C@H]1C(=O)N2C(C(=O)O)=C(S[C@@H]3CN[C@H](C(=O)N(C)C)C3)[C@H](C)[C@H]12 [Meropenem] | 1 µg/mL | 0.0625 µg/mL | 16 fold |  | 0.0625 µg/mL | 0.03125 µg/mL |  |
